From the NIST ThermoML archive (doi:10.1016/j.jct.2015.03.011)
Where “and” joins values, the source holds several entries; their conditions need not be identical. Equal values may be shown once.

Details: Liquid, Transpiration method

CC(N)CN (stereo unspecified) [1,2-propanediamine]
Details | vapor or sublimation pressure [kPa]
273.8 K | 0.2726
274.9 K | 0.2967
276.6 K | 0.3411
277 K | 0.3482
279.1 K | 0.4011
279.7 K | 0.4205
281.3 K | 0.4594
282.7 K | 0.5281
283.2 K | 0.5245
285.3 K | 0.6214
285.7 K | 0.6306
287.3 K | 0.72
288.7 K | 0.7897
289.2 K | 0.8316
291.2 K | 0.9464
291.7 K | 0.9537
293.1 K | 1.069
294.7 K | 1.187
295.2 K | 1.234
297.1 K | 1.357
297.6 K | 1.422
299.1 K | 1.559
299.6 K | 1.629
301.2 K | 1.82
301.7 K | 1.84
303.2 K | 2.075
303.7 K | 2.099
305.7 K | 2.354

CC(C)(N)CN [2-methyl-1,2-propanediamine]
Details | vapor or sublimation pressure
276 K | 0.2878 kPa
276.6 K | 0.3031 kPa
277.6 K | 0.3267 kPa
278.1 K | 0.3442 kPa
279.3 K | 0.3687 kPa
280.6 K | 0.405 kPa
282.4 K | 0.4569 kPa and 0.4785 kPa
283.2 K | 0.492 kPa
284.5 K | 0.548 kPa and 0.5301 kPa
286 K | 0.5853 kPa
288.4 K | 0.7053 kPa
290.4 K | 0.7971 kPa
292.5 K | 0.9233 kPa
294.3 K | 1.052 kPa
295.9 K | 1.144 kPa
297.2 K | 1.299 kPa
299 K | 1.422 kPa
300.3 K | 1.575 kPa
302 K | 1.752 kPa
304.6 K | 2.037 kPa
306.1 K | 2.247 kPa
307.6 K | 2.451 kPa
308.7 K | 2.62 kPa
